EC50 and IC50 data for 37 compounds are collected here from patent US20240327334A1, “Covalent Inhibitors As Antiviral Agents” (Enanta Pharmaceuticals, Inc., priority 2022, published 2024).

Test [1] concerns SARS-CoV-2 replicon. Briefly: microbe, parasite or virus in culture. It counts as cell-based. The conditions noted are these: Severe acute respiratory syndrome coronavirus 2, Huh-7.
Test [2] deals with SARS-CoV-2 Papain-like (PLpro) protease (Severe acute respiratory syndrome coronavirus 2, UniProt P0DTD1). The experiment in a line: SARS-CoV-2 Papain-like (PLpro) protease biochemical enzyme inhibition assay (ubiquitin-fluorophore substrate, Ub-R110). To be noted: Ub-R110 substrate; run in duplicate; read-out: PLpro IC50.

pEC50, pIC50: −log10 of the molar value.

For `O=C(NCC#Cc1ccc(C(F)(F)F)cc1F)C(=O)NCc1ccccc1C(=O)NC1(c2ccc3ccccc3c2)CC1` [Example 175], the pEC50 (commonly −log10 of the EC50, conventionally taken in molar units) in test [1] was 5.00 to 6.00. In addition, in test [2], the pIC50 (in general, the IC50 on a negative log10 scale, so that one unit is a factor of ten) was 6.00 to 7.00.
As for `Cc1nn(C2CC2)c(C)c1-c1cc(F)cc(C2(NC(=O)c3ccccc3CNC(=O)C(=O)NCC#Cc3nccs3)CC2)c1` [Example 139], the pEC50 in test [1] is over 6.00. In addition, the pIC50 in test [2] was over 7.00.
Regarding `C[C@@H](C#Cc1nccs1)NC(=O)C(=O)NCc1ccccc1C(=O)NC1(c2cc(Cl)cc(-c3nccs3)c2)CC1` [Example 494], in test [1], the pEC50 was over 6.00. Further, the pIC50 in test [2] was over 7.00.
Turning to `C[C@@H](C#Cc1c(F)cccc1C#N)NC(=O)C(=O)NCc1ccccc1C(=O)NC1(c2ccc3nn(C)cc3c2)CC1` [Example 100], the pEC50 in test [1] is over 6.00. In addition, the pIC50 in test [2] was over 7.00.
With `O=C(NCC#Cc1nccs1)C(=O)NCc1ccccc1C(=O)NC1(c2cc(-c3ccn(C(F)F)n3)cc(F)c2F)CC1` [Example 296], the pEC50 in test [1] was over 6.00. For the same compound, the pIC50 in test [2] is over 7.00.
On the same counts, the results for `C#CCNC(=O)C(=O)NCc1ccc(C(=O)N2CC(F)(F)C2)cc1C(=O)NC1(c2ccc(F)c3ccccc23)CC1` [Example 61] are over 6.00 and over 7.00.
For `COC(=O)/C=C/CNC(=O)C(=O)NNc1ccccc1C(=O)NC1(c2cccc3ccccc23)CC1` [Example 576], the pEC50 in test [1] is over 6.00. Besides, the pIC50 in test [2] is over 7.00.
The compound `N#CCNC(=O)C(=O)NCc1ccccc1C(=O)NC1(c2ccc(F)c(-c3cnn(C4CC4)c3)c2)CC1` [Example 221] had a pEC50 in test [1] of 5.00 to 6.00. Besides, the pIC50 in test [2] is over 7.00.
In turn, `CCN(OC)C(=O)/C=C/CNC(=O)C(=O)NCc1ccccc1C(=O)NC1(c2cccc3ccccc23)CC1` [Example 558] gave a pEC50 in test [1] of 5.00 to 6.00. The pIC50 in test [2] was 6.00 to 7.00.
For `C#CCNC(=O)C(=O)NCc1ccccc1C(=O)NC1(c2cc(Cl)cc(-c3cnc(C(F)(F)F)nc3)c2)CC1` [Example 71], the pEC50 in test [1] was over 6.00. The negative logarithm of the IC50 (pIC50) in test [2] is over 7.00.
For `COc1cnc(C#CCNC(=O)C(=O)NCc2ccccc2C(=O)NC2(c3ccc4ccccc4c3)CC2)cn1` [Example 198], the pEC50 in test [1] is over 6.00. In addition, the pIC50 in test [2] is over 7.00.
The corresponding values for `N#CCNC(=O)C(=O)NCc1ccccc1C(=O)NC1(c2cc(N3CC(O)C3)cc3ccccc23)CC1` [Example 330] are 5.00 to 6.00 and over 7.00.
The compound `N#CCNC(=O)C(=O)NCc1ccccc1C(=O)NC1(c2cc(Cl)cc(Br)c2)CC1` [Example 455] gave a pEC50 in test [1] of under 5.00. Also, the pIC50 in test [2] is 6.00 to 7.00.
For `O=C(NCC#Cc1ncc(F)cn1)C(=O)NCc1ccccc1C(=O)NC1(c2ccc3ccccc3c2)CC1` [Example 176], the pEC50 in test [1] was over 6.00. In addition, in test [2], the pIC50 was over 7.00.
In test [1], `N#CCNC(=O)C(=O)NCc1ccccc1C(=O)NC1(c2ccc3c4c(cccc24)C(=O)N3)CC1` [Example 434] showed a pEC50 of 5.00 to 6.00. Also, in test [2], the pIC50 was over 7.00.
Turning to `N#CCNC(=O)C(=O)NCc1ccccc1C(=O)NC1(c2cccc(C(F)(F)F)c2Cl)CC1` [Example 370], the pEC50 in test [1] was 5.00 to 6.00. Further, in test [2], the pIC50 was 6.00 to 7.00.
As to `O=C(/C=C/CNC(=O)C(=O)NCc1ccccc1C(=O)NC1(c2cccc3ccccc23)CC1)NCC(F)(F)F` [Example 572], the pEC50 in test [1] was under 5.00. Moreover, in test [2], the pIC50 is 6.00 to 7.00.
For the compound `O=C(NCC#Cc1nccs1)C(=O)NCc1ccccc1C(=O)NC1(c2cc(F)cc(-c3ccn(C(F)F)n3)c2)CC1` [Example 136], the pEC50 in test [1] is over 6.00. In addition, the pIC50 in test [2] was over 7.00.
Take `C#CCNC(=O)C(=O)NCc1ccccc1C(=O)NC1(c2ccc(F)c(-c3cnn(C)c3)c2)CC1` [Example 232]: in test [1], the pEC50 was over 6.00. In test [2], the pIC50 was over 7.00.
With `C#CCNC(=O)C(=O)NCc1ccccc1C(=O)NC1(c2ccc(OC)c(-c3cnn(C4CC4)c3)c2)CC1` [Example 245], the pEC50 in test [1] was over 6.00. In test [2], the pIC50 was over 7.00.
Turning to `O=C(NCC#Cc1nccs1)C(=O)NCc1ccccc1C(=O)NC1(c2cccc3ccccc23)CC1` [Example 160], the pEC50 in test [1] is over 6.00. The pIC50 in test [2] was over 7.00.
In turn, `C#CCNC(=O)C(=O)NCc1ccccc1C(=O)NC1(c2ccc(F)c(-c3cnn(C4CC4)c3)c2)CC1` [Example 225] showed a pEC50 in test [1] of over 6.00. Further, the pIC50 in test [2] is over 7.00.
On the same counts, the results for `C[C@@H](C#Cc1ccc(C#N)cc1F)NC(=O)C(=O)NCc1ccccc1C(=O)NC1(c2cc(F)cc(-c3cnn(C4CC4)c3)c2)CC1` [Example 145] are over 6.00 and over 7.00.
With `N#CCNC(=O)C(=O)NCc1ccccc1C(=O)NC1(c2cc(F)cc(Br)c2)CC1` [Example 218], the pEC50 in test [1] is under 5.00. Also, the pIC50 in test [2] is 6.00 to 7.00.
In turn, `N#CCNC(=O)C(=O)NCc1ccccc1C(=O)NC1(c2cc(Cl)cc(-c3cncs3)c2)CC1` [Example 448] gave a pEC50 in test [1] of 5.00 to 6.00. The pIC50 in test [2] is over 7.00.
Regarding `Cc1nn(C)c(C)c1-c1cc(C2(NC(=O)c3ccccc3CNC(=O)C(=O)NCC#Cc3nccs3)CC2)cc2ccccc12` [Example 299], the pEC50 in test [1] was over 6.00. Besides, the pIC50 in test [2] is over 7.00.
In test [1], `N#CCNC(=O)C(=O)NCc1ccccc1C(=O)NC1(c2cc(-c3cn(-c4ccccn4)nn3)cc3ccccc23)CC1` [Example 427] gave a pEC50 of over 6.00. The pIC50 in test [2] was over 7.00.
As to `N#CCNC(=O)C(=O)NCc1ccccc1C(=O)NC1(c2cc(C(F)(F)F)nc3ccccc23)CC1` [Example 90], the pEC50 in test [1] was 5.00 to 6.00. In addition, in test [2], the pIC50 was over 7.00.
Regarding `N#CN1CCC[C@H]1CNC(=O)C(=O)NCc1ccccc1C(=O)NC1(c2cccc3ccccc23)CC1` [Example 504], in test [1], the pEC50 is over 6.00. Besides, the pIC50 in test [2] is over 7.00.
Regarding `CC(C#N)NC(=O)C(=O)NCc1ccccc1C(=O)NC1(c2cccc3ccccc23)CC1` (centres unmarked) [Example 33], in test [1], the pEC50 is under 5.00. Besides, the pIC50 in test [2] was 6.00 to 7.00.
As for `COc1cc(C2(NC(=O)c3ccccc3CNC(=O)C(=O)NCC#N)CC2)c2cccnc2c1` [Example 411], in test [1], the pEC50 is 5.00 to 6.00. Besides, in test [2], the pIC50 was over 7.00.
`O=C(NCC#Cc1ccc(C(F)(F)F)cn1)C(=O)NCc1ccccc1C(=O)NC1(c2ccc3ccccc3c2)CC1` [Example 189]: in test [1], the pEC50 is over 6.00. In addition, the pIC50 in test [2] was over 7.00.
In test [1], `N#C/C=C/CNC(=O)C(=O)NCc1ccccc1C(=O)NC1(c2ccc3c4c(cccc24)CC3)CC1` [Example 438] gave a pEC50 of over 6.00. Moreover, the pIC50 in test [2] was over 7.00.
`C#CCNC(=O)C(=O)NCc1ccccc1C(=O)NC1(c2cc(-c3c(C)n[nH]c3C)cc(C(F)(F)F)c2)CC1` [Example 477] showed a pEC50 in test [1] of over 6.00. The negative-log IC50 (pIC50) in test [2] is over 7.00.
In turn, `C#CCNC(=O)C(=O)NCc1ccccc1C(=O)NC1(c2cc(-c3cnn(C4CC4)c3)ccc2Cl)CC1` [Example 384] had a pEC50 in test [1] of over 6.00. The pIC50 in test [2] was over 7.00.
In test [1], `O=C(NCC#Cc1nccs1)C(=O)NCc1ccccc1C(=O)NC1(c2cc(Cl)cc(-c3cnco3)c2)CC1` [Example 449] showed a pEC50 of over 6.00. Moreover, the pIC50 in test [2] is over 7.00.
The corresponding values for `COCCN(C)C(=O)/C=C/CNC(=O)C(=O)NCc1ccccc1C(=O)NC1(c2cccc3ccccc23)CC1` [Example 556] are 5.00 to 6.00 and 6.00 to 7.00.
